According to ChEMBL document CHEMBL1909046, “DrugMatrix in vitro pharmacology data”:

Target: Mitogen-activated protein kinase 3 (Homo sapiens, UniProt P27361)
Test: DRUGMATRIX: Protein Serine/Threonine Kinase, ERK1 enzyme inhibition (substrate: Myelin Basic Protein)
Design: species or system Escherichia coli
Conditions: Not Active = under 50% inhibition at 10 µM

Chain of Mitogen-activated protein kinase 3 (P27361 whole entry): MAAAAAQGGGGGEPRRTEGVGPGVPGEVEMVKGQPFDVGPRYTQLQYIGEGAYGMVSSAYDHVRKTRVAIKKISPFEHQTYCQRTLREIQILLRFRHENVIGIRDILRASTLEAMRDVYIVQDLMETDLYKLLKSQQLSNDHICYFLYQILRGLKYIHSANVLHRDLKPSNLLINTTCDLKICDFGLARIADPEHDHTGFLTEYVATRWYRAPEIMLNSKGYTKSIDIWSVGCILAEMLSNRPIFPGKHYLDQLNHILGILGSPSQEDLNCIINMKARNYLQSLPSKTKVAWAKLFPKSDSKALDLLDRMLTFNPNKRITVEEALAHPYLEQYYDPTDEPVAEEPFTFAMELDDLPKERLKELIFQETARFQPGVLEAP

SMILES	IC50
COC(=O)[C@H]1[C@H]2C[C@@H]3c4[nH]c5cc(OC)ccc5c4CCN3C[C@H]2C[C@@H](OC(=O)c2cc(OC)c(OC)c(OC)c2)[C@@H]1OC [RESERPINE]	Not Active
O=C(O)c1ccccc1O [SALICYLIC ACID]	Not Active
CC1CCC(NC(=O)N(CCCl)N=O)CC1 (configuration not stated) [SEMUSTINE]	Not Active
O=C1C[C@@H]2OCC=C3CN4CC[C@]56c7ccccc7N1[C@H]5[C@H]2[C@H]3C[C@H]46 [STRYCHNINE]	Not Active
C[N+](C)(C)CCOC(=O)CCC(=O)OCC[N+](C)(C)C.[Cl-].[Cl-] [SUCCINYLCHOLINE CHLORIDE]	Not Active
Nc1ccc(S(=O)(=O)NC(=O)c2ccccc2)cc1 [SULFABENZAMIDE]	Not Active
CCCCCCCCNC(C)C(O)c1ccc(SC(C)C)cc1 (configuration not stated) [SULOCTIDIL]	Not Active

Target: T1, Cholecystokinin receptor type A (Homo sapiens, UniProt P32238); also: in other assays of this panel Not Active means under 50% inhibition at 10 µM
T1 sequence (P32238 whole entry): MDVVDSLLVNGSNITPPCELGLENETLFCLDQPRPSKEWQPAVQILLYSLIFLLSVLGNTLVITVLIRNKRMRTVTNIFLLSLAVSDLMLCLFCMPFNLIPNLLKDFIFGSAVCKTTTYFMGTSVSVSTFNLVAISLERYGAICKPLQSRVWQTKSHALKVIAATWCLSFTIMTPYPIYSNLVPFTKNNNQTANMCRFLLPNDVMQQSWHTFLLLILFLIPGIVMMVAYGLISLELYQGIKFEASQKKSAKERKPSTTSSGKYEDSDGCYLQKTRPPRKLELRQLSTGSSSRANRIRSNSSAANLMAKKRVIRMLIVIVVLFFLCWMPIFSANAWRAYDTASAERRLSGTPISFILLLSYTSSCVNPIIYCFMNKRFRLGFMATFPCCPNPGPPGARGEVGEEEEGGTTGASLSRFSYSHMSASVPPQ
Test: not given
Assay type: cell membranes, Membrane
Conditions: 1321-n1

SMILES	IC50
COC(=O)[C@H]1[C@H]2C[C@@H]3c4[nH]c5cc(OC)ccc5c4CCN3C[C@H]2C[C@@H](OC(=O)c2cc(OC)c(OC)c(OC)c2)[C@@H]1OC [RESERPINE]	Not Active
O=C(O)c1ccccc1O [SALICYLIC ACID]	Not Active
CC1CCC(NC(=O)N(CCCl)N=O)CC1 (configuration not stated) [SEMUSTINE]	Not Active
O=C1C[C@@H]2OCC=C3CN4CC[C@]56c7ccccc7N1[C@H]5[C@H]2[C@H]3C[C@H]46 [STRYCHNINE]	Not Active
C[N+](C)(C)CCOC(=O)CCC(=O)OCC[N+](C)(C)C.[Cl-].[Cl-] [SUCCINYLCHOLINE CHLORIDE]	Not Active
Nc1ccc(S(=O)(=O)NC(=O)c2ccccc2)cc1 [SULFABENZAMIDE]	Not Active
CCCCCCCCNC(C)C(O)c1ccc(SC(C)C)cc1 (configuration not stated) [SULOCTIDIL]	Not Active

Target: C-C chemokine receptor type 5 (Homo sapiens, UniProt P51681); also: in other assays of this panel Not Active means under 50% inhibition at 10 µM
Test: not given
Assay type: cell membranes, Membrane
Conditions: hek293

Chain of C-C chemokine receptor type 5 (P51681 whole entry): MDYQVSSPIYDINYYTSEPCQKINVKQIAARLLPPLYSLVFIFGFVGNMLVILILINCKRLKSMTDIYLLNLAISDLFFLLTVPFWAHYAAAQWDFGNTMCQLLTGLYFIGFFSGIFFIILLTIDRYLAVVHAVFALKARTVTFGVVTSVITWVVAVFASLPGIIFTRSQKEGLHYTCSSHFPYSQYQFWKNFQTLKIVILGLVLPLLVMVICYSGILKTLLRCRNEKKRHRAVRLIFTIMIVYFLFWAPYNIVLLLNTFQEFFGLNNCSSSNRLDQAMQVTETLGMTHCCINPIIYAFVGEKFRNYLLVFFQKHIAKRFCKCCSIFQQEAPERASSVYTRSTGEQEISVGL

SMILES	IC50
COC(=O)[C@H]1[C@H]2C[C@@H]3c4[nH]c5cc(OC)ccc5c4CCN3C[C@H]2C[C@@H](OC(=O)c2cc(OC)c(OC)c(OC)c2)[C@@H]1OC [RESERPINE]	Not Active
O=C(O)c1ccccc1O [SALICYLIC ACID]	Not Active
CC1CCC(NC(=O)N(CCCl)N=O)CC1 (configuration not stated) [SEMUSTINE]	Not Active
O=C1C[C@@H]2OCC=C3CN4CC[C@]56c7ccccc7N1[C@H]5[C@H]2[C@H]3C[C@H]46 [STRYCHNINE]	Not Active
C[N+](C)(C)CCOC(=O)CCC(=O)OCC[N+](C)(C)C.[Cl-].[Cl-] [SUCCINYLCHOLINE CHLORIDE]	Not Active
Nc1ccc(S(=O)(=O)NC(=O)c2ccccc2)cc1 [SULFABENZAMIDE]	Not Active
CCCCCCCCNC(C)C(O)c1ccc(SC(C)C)cc1 (configuration not stated) [SULOCTIDIL]	Not Active

Target: T2, Interstitial collagenase (Homo sapiens, UniProt P03956);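 also: MMP-1 enzyme inhibition assay using a peptide substrate; in other assays of this panel Not Active means under 50% inhibition at 10 µM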
T2 sequence (P03956 whole entry): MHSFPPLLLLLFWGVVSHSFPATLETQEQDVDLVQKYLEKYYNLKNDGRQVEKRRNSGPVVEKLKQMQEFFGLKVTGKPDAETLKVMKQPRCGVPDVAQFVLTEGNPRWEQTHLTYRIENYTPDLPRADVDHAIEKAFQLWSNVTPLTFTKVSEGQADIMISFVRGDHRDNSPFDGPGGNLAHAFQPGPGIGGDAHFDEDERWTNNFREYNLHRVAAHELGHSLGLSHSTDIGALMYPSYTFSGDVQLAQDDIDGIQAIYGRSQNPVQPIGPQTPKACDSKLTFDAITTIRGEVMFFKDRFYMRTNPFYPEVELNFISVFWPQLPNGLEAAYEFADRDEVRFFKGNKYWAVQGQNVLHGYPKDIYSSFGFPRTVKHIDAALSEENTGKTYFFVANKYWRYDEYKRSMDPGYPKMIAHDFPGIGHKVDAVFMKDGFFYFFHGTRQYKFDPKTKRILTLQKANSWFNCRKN
Test: biochemical
Assay type: tissue-based, Rheumatoid synovial fibroblasts
Conditions: not given

SMILES	IC50
COC(=O)[C@H]1[C@H]2C[C@@H]3c4[nH]c5cc(OC)ccc5c4CCN3C[C@H]2C[C@@H](OC(=O)c2cc(OC)c(OC)c(OC)c2)[C@@H]1OC [RESERPINE]	Not Active
O=C(O)c1ccccc1O [SALICYLIC ACID]	Not Active
CC1CCC(NC(=O)N(CCCl)N=O)CC1 (configuration not stated) [SEMUSTINE]	Not Active
O=C1C[C@@H]2OCC=C3CN4CC[C@]56c7ccccc7N1[C@H]5[C@H]2[C@H]3C[C@H]46 [STRYCHNINE]	Not Active
C[N+](C)(C)CCOC(=O)CCC(=O)OCC[N+](C)(C)C.[Cl-].[Cl-] [SUCCINYLCHOLINE CHLORIDE]	Not Active
Nc1ccc(S(=O)(=O)NC(=O)c2ccccc2)cc1 [SULFABENZAMIDE]	Not Active
CCCCCCCCNC(C)C(O)c1ccc(SC(C)C)cc1 (configuration not stated) [SULOCTIDIL]	Not Active

Target: T3, Alpha-2C adrenergic receptor (Homo sapiens, UniProt P18825)
T3 sequence (P18825 whole entry): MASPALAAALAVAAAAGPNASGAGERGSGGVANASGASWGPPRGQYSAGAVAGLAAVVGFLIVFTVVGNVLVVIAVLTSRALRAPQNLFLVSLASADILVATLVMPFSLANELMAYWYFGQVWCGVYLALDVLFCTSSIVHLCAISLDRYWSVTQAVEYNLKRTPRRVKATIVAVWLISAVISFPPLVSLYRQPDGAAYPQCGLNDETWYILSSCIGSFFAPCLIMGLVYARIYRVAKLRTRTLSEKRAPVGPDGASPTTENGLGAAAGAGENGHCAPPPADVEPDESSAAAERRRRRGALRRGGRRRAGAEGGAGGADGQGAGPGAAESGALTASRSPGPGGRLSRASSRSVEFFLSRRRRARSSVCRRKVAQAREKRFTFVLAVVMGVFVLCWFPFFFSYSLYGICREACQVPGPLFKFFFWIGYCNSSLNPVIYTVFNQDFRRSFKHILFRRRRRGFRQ
Test: DRUGMATRIX: Adrenergic Alpha-2C radioligand binding (ligand: [3H] MK-912)
Assay type: cell membranes, Sf9, Membrane
Conditions: read-out: IC50

SMILES	IC50 [nM]
CCCCCCCCNC(C)C(O)c1ccc(SC(C)C)cc1 (configuration not stated) [SULOCTIDIL]	3450

Same assay, conditions: read-out: Ki

SMILES	Ki [nM]
CCCCCCCCNC(C)C(O)c1ccc(SC(C)C)cc1 (configuration not stated) [SULOCTIDIL]	501

Same assay, conditions: sf9

SMILES	IC50
COC(=O)[C@H]1[C@H]2C[C@@H]3c4[nH]c5cc(OC)ccc5c4CCN3C[C@H]2C[C@@H](OC(=O)c2cc(OC)c(OC)c(OC)c2)[C@@H]1OC [RESERPINE]	Not Active
O=C(O)c1ccccc1O [SALICYLIC ACID]	Not Active
CC1CCC(NC(=O)N(CCCl)N=O)CC1 (configuration not stated) [SEMUSTINE]	Not Active
O=C1C[C@@H]2OCC=C3CN4CC[C@]56c7ccccc7N1[C@H]5[C@H]2[C@H]3C[C@H]46 [STRYCHNINE]	Not Active
C[N+](C)(C)CCOC(=O)CCC(=O)OCC[N+](C)(C)C.[Cl-].[Cl-] [SUCCINYLCHOLINE CHLORIDE]	Not Active
Nc1ccc(S(=O)(=O)NC(=O)c2ccccc2)cc1 [SULFABENZAMIDE]	Not Active

Target: 5-hydroxytryptamine receptor 2B (Homo sapiens, UniProt P41595); also: in other assays of this panel Not Active means under 50% inhibition at 10 µM
Test: not given
Assay type: cell membranes, CHO-K1, Membrane
Conditions: cho-k1

Chain of 5-hydroxytryptamine receptor 2B (P41595 whole entry): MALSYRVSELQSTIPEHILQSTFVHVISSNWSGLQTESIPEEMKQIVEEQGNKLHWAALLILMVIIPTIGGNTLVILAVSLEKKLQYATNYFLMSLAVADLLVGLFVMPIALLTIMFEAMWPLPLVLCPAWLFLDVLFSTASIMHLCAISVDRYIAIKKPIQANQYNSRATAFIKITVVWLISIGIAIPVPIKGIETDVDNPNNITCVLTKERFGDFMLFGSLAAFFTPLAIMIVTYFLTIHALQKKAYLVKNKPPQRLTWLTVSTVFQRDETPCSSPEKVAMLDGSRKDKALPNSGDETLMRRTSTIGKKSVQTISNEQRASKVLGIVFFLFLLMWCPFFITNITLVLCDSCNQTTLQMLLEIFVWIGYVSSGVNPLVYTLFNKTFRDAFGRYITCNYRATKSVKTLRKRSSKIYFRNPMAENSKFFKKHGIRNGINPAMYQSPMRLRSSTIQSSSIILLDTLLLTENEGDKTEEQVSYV

SMILES	IC50
COC(=O)[C@H]1[C@H]2C[C@@H]3c4[nH]c5cc(OC)ccc5c4CCN3C[C@H]2C[C@@H](OC(=O)c2cc(OC)c(OC)c(OC)c2)[C@@H]1OC [RESERPINE]	Not Active
O=C(O)c1ccccc1O [SALICYLIC ACID]	Not Active
CC1CCC(NC(=O)N(CCCl)N=O)CC1 (configuration not stated) [SEMUSTINE]	Not Active
O=C1C[C@@H]2OCC=C3CN4CC[C@]56c7ccccc7N1[C@H]5[C@H]2[C@H]3C[C@H]46 [STRYCHNINE]	Not Active
C[N+](C)(C)CCOC(=O)CCC(=O)OCC[N+](C)(C)C.[Cl-].[Cl-] [SUCCINYLCHOLINE CHLORIDE]	Not Active
Nc1ccc(S(=O)(=O)NC(=O)c2ccccc2)cc1 [SULFABENZAMIDE]	Not Active

Same assay, conditions: read-out: IC50

SMILES	IC50 [nM]
CCCCCCCCNC(C)C(O)c1ccc(SC(C)C)cc1 (configuration not stated) [SULOCTIDIL]	939

Same assay, conditions: read-out: Ki

SMILES	Ki [nM]
CCCCCCCCNC(C)C(O)c1ccc(SC(C)C)cc1 (configuration not stated) [SULOCTIDIL]	598

Target: T4, 5-hydroxytryptamine receptor 1A (Rattus norvegicus, UniProt P19327); also: in other assays of this panel Not Active means under 50% inhibition at 10 µM
T4 sequence (P19327 whole entry): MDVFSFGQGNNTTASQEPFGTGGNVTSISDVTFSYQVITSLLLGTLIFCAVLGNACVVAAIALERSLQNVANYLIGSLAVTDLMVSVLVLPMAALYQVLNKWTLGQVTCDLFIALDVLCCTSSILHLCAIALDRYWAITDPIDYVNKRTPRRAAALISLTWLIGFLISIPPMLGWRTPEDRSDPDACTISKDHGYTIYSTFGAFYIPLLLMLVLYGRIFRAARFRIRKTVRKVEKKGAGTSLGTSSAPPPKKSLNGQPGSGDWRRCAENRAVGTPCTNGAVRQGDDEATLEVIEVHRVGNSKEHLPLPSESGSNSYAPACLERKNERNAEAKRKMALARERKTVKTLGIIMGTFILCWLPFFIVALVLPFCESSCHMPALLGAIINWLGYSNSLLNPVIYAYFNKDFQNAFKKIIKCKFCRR
Test: not given
Assay type: cell membranes, CHO-K1, Membrane
Conditions: cho-k1

SMILES	IC50
COC(=O)[C@H]1[C@H]2C[C@@H]3c4[nH]c5cc(OC)ccc5c4CCN3C[C@H]2C[C@@H](OC(=O)c2cc(OC)c(OC)c(OC)c2)[C@@H]1OC [RESERPINE]	Not Active
O=C(O)c1ccccc1O [SALICYLIC ACID]	Not Active
CC1CCC(NC(=O)N(CCCl)N=O)CC1 (configuration not stated) [SEMUSTINE]	Not Active
O=C1C[C@@H]2OCC=C3CN4CC[C@]56c7ccccc7N1[C@H]5[C@H]2[C@H]3C[C@H]46 [STRYCHNINE]	Not Active
C[N+](C)(C)CCOC(=O)CCC(=O)OCC[N+](C)(C)C.[Cl-].[Cl-] [SUCCINYLCHOLINE CHLORIDE]	Not Active
Nc1ccc(S(=O)(=O)NC(=O)c2ccccc2)cc1 [SULFABENZAMIDE]	Not Active

Same assay, conditions: read-out: IC50

SMILES	IC50 [nM]
CCCCCCCCNC(C)C(O)c1ccc(SC(C)C)cc1 (configuration not stated) [SULOCTIDIL]	544

Same assay, conditions: read-out: Ki

SMILES	Ki [nM]
CCCCCCCCNC(C)C(O)c1ccc(SC(C)C)cc1 (configuration not stated) [SULOCTIDIL]	311
